Test results reported in publication PMC10762035, “Molecular basis of human trace amine-associated receptor 1 activation” (Nature Communications, 2024).
Numbering of substitutions follows the chain as printed. Several values for one entry are separate records, joined by “and”; a condition that tells them apart may be missing. Equal entries are not always repeated.

Key:
Format in all cases: cell-based
hTA1 C13S = biological target: T1, hTA1 C13S (Homo sapiens, UniProt Q96RJ0, C13S); assay: GloSensor cAMP accumulation assay, C13S mutant; conditions: for C13S - Normalized Luminescence Counts (N=2): log[Compound], single wells
T1 construct: expressed in transfected cells; host or cells: HEK293T
T1 sequence (Q96RJ0 1-339 C13S): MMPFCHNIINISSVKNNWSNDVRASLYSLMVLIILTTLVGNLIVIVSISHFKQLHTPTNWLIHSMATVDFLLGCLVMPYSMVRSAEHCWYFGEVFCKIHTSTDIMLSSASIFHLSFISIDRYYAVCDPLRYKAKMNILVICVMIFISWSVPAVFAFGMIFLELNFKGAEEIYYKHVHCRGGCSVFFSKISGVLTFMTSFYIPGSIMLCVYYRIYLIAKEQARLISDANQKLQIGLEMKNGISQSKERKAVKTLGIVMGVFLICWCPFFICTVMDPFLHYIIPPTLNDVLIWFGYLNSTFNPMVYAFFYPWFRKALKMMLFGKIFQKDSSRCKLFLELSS

hTA1 W264F = biological target: T2, hTA1 W264F (Homo sapiens, UniProt Q96RJ0, W264F); assay: GloSensor cAMP accumulation assay, W264F mutant;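 also: cells transiently transfected with receptor plus GloSensor, luminescence read 30 min after agonist addition at room temperature, concentration-response curves fitted by log(agonist) vs response regression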
T2 construct: expressed in transfected cells; host or cells: HEK293T
T2 sequence (Q96RJ0 1-339 W264F): T1 sequence (Q96RJ0 1-339 C13S) with S13C, W264F

hTA1 C178S = biological target: T3, hTA1 C178S (Homo sapiens, UniProt Q96RJ0, C178S); assay: GloSensor cAMP accumulation assay, C178S mutant; conditions: for C178S - Normalized Luminescence Counts (N=2): log[Compound], single replicates
T3 construct: expressed in transfected cells; host or cells: HEK293T
T3 sequence (Q96RJ0 1-339 C178S): T1 sequence (Q96RJ0 1-339 C13S) with S13C, C178S

[1] = C178S, each row one experiment (N=2), 3 replicates

NCCc1ccccc1 [β-PEA, β-phenethylamine]
ΔEmax values (each mutant value - WT average) (hTA1 C13S; C13S): 0
ΔpEC50 values (each mutant value - WT average) (hTA1 C13S; C13S): -0.3351 and -0.4017
Emax values (hTA1 C13S; C13S, Mean of fit per experiment): 100
Span ± SEM (Emax normalized to β-PEA) (hTA1 C13S; C13S, n=2): 100 ± 2.41
pEC50 ± SEM (hTA1 C13S; C13S, n=2): 6.73 ± 0.05
EC50 (hTA1 C13S; C13S, n=2, read-out: EC50): 188 nM
pEC50 values, Mean (hTA1 C13S; hTA1 C13S, mean of 3 replicates, one line per independent experiment): 6.758 and 6.6918
C13S - Normalized Luminescence Counts (N=2) (hTA1 C13S; M = -5): 99.2705 and 93.6371 and 125.268 and 108.514 and 91.163 and 111.602
C13S - Normalized Luminescence Counts (N=2) (hTA1 C13S; M = -5.522): 84.5018 and 89.7165 and 90.3636 and 93.2337 and 75.9363 and 100.338
C13S - Normalized Luminescence Counts (N=2) (hTA1 C13S; M = -6): 78.7162 and 86.7856 and 86.6715 and 80.2383 and 65.7078 and 88.5033
C13S - Normalized Luminescence Counts (N=2) (hTA1 C13S; M = -6.522): 64.3281 and 49.293 and 64.0617 and 65.0295 and 54.7831 and 70.7417
ΔEmax values (each mutant value - WT average) (hTA1 W264F; W246F mutant (so in the source) minus WT average): 0
pEC50 values, Mean (hTA1 W264F; W246F mutant (so in the source), each line an independent experiment, 3 replicates): 5.329 and 5.8775
Emax values, Mean (hTA1 W264F; W246F mutant (so in the source), β-PEA = 100, each line an independent experiment, 3 replicates): 100
Span ± SEM (Emax normalized to β-PEA) (hTA1 W264F; W264F, n=2): 100 ± 4.75
pEC50 ± SEM (hTA1 W264F; W264F, n=2): 5.6 ± 0.06
EC50 (hTA1 W264F; W264F, n=2, read-out: EC50): 2490 nM
pEC50 values, Mean (hTA1 C178S; [1]): 7.235 and 7.223
ΔpEC50 values (each mutant value - WT average), Mean (hTA1 C178S; [1]): 0.1416 and 0.1292
Span ± SEM (Emax normalized to β-PEA) (hTA1 C178S; C178S, n=2): 100 ± 2.97
pEC50 ± SEM (hTA1 C178S; C178S, n=2): 7.23 ± 0.07
EC50 (hTA1 C178S; C178S, n=2, read-out: EC50): 59 nM
Emax values, Mean (hTA1 C178S; C178S, β-PEA = 100, each row one experiment (N=2), 3 replicates): 100
C178S - Normalized Luminescence Counts (N=2) (hTA1 C178S; M = -5): 99.3155 and 106.699 and 98.2875 and 86.7589 and 74.9716 and 83.1688
C178S - Normalized Luminescence Counts (N=2) (hTA1 C178S; M = -5.522): 92.9136 and 85.3902 and 85.0163 and 113.744 and 82.4209 and 115
C178S - Normalized Luminescence Counts (N=2) (hTA1 C178S; M = -6): 105.577 and 101.792 and 96.652 and 125.741 and 90.4686 and 124.155
C178S - Normalized Luminescence Counts (N=2) (hTA1 C178S; M = -6.522): 93.1473 and 96.0445 and 75.0162 and 77.2154 and 68.719 and 87.1478
C178S - Normalized Luminescence Counts (N=2) (hTA1 C178S; M = -7): 68.3806 and 62.1189 and 51.4645 and 64.3212 and 56.124 and 61.3594
C178S - Normalized Luminescence Counts (N=2) (hTA1 C178S; M = -7.522): 36.8382 and 29.782 and 30.7166 and 32.2204 and 27.7927 and 32.0708
C178S - Normalized Luminescence Counts (N=2) (hTA1 C178S; M = -8): 16.2772 and 19.3614 and 14.922 and 22.976 and 17.1422 and 19.9245
C178S - Normalized Luminescence Counts (N=2) (hTA1 C178S; M = -8.522): 3.333 and 3.193 and 2.959 and 9.783 and 5.445 and 7.24
C178S - Normalized Luminescence Counts (N=2) (hTA1 C178S; M = -9): 1.604 and 3.099 and 1.838 and 2.393 and 2.184 and 1.825
C178S - Normalized Luminescence Counts (N=2) (hTA1 C178S; M = -9.522): 0.7163 and 0.2957 and -0.07812 and 1.615 and 0.2691 and 1.107
C178S - Normalized Luminescence Counts (N=2) (hTA1 C178S; M = -10): 1.791 and 0.9967 and 1.277 and -3.171 and -1.3464 and -0.5985
C178S - Normalized Luminescence Counts (N=2) (hTA1 C178S; M = -10.522): -0.5454 and 0.763 and 0.06206 and -2.244 and -1.825 and -1.7054
C178S - Normalized Luminescence Counts (N=2) (hTA1 C178S; M = -11): 0.1088 and 0.5294 and -0.07812 and 0.3289 and 0.7777 and -1.376
C178S - Normalized Luminescence Counts (N=2) (hTA1 C178S; M = -11.522): 1.37 and -0.1716 and -0.2183 and -0.6583 and -1.287 and 0.3289
C178S - Normalized Luminescence Counts (N=2) (hTA1 C178S; M = -12): -0.7791 and 0.2957 and -0.265 and -2.932 and -0.03006 and 1.645
